Inconclusive results and toxic doses are left out. Cut-off read from the data, not from the text of the source: active = T/C of 150% or more; inactive = T/C below 125%.
System: L1210 leukemia ip in BDF1 mice, survival T/C
Experiment: NCI In Vivo Anticancer Drug Screen. Data for tumor model L1210 Leukemia (intraperitoneal) in B6D2F1 (BDF1) mice
Conditions: endpoint: mean survival time, higher = longer survival
Procedure, shortened: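 Mice bearing the transplanted tumor received compound or vehicle. Survival of the treated group was divided by that of the vehicle-treated control group to give the ratio.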

[1] = dose: 100.0 mg/kg/injection, schedule: Q04DX003 (ip), vehicle: saline with Tween-80
[2] = dose: 200.0 mg/kg/injection, schedule: Q04DX003 (ip), vehicle: saline with Tween-80
[3] = dose: 400.0 mg/kg/injection, schedule: Q04DX003 (ip), vehicle: saline with Tween-80
[4] = dose: 200.0 mg/kg/injection, schedule: Q01DX009 (ip), vehicle: saline with Tween-80
[5] = dose: 400.0 mg/kg/injection, schedule: Q01DX009 (ip), vehicle: saline with Tween-80
[6] = dose: 100.0 mg/kg/injection, schedule: Q01DX001 (ip), vehicle: saline
[7] = dose: 100.0 mg/kg/injection, schedule: Q01DX009 (ip), vehicle: saline
[8] = dose: 200.0 mg/kg/injection, schedule: Q01DX001 (ip), vehicle: saline
[9] = dose: 200.0 mg/kg/injection, schedule: Q01DX009 (ip), vehicle: saline
[10] = dose: 400.0 mg/kg/injection, schedule: Q01DX001 (ip), vehicle: saline
[11] = dose: 400.0 mg/kg/injection, schedule: Q01DX009 (ip), vehicle: saline

Measured: T/C

CNc1cc([N+](=O)[O-])ccc1OCc1ccccc1
inactive: dose: 75.0 mg/kg/injection, schedule: Q01DX009 (ip), vehicle: saline with Tween-80 87 % of control | [1] 89 % of control | dose: 150.0 mg/kg/injection, schedule: Q01DX009 (ip), vehicle: saline with Tween-80 87 % of control | [2] 92 % of control | dose: 300.0 mg/kg/injection, schedule: Q01DX009 (ip), vehicle: saline with Tween-80 91 % of control | [3] 101 % of control

COc1ncnc2c(C3OC(CO)C(O)C3O)[nH]nc12 (configuration not stated)
inactive: dose: 100.0 mg/kg/injection, schedule: Q01DX005 (ip), vehicle: saline 103 % of control | dose: 200.0 mg/kg/injection, schedule: Q01DX005 (ip), vehicle: saline 97 % of control

C=C1c2ccccc2N(C)C1(COc1ccc(Cl)cc1)OC(=O)c1cccc(Cl)c1 (configuration not stated)
inactive: dose: 100.0 mg/kg/injection, schedule: Q04DX002 (ip), vehicle: saline 88 % of control | dose: 200.0 mg/kg/injection, schedule: Q04DX002 (ip), vehicle: saline 98 % of control | dose: 400.0 mg/kg/injection, schedule: Q04DX002 (ip), vehicle: saline 98 % of control

O=C(O)/C=C/c1ccccc1C(=O)O
inactive: dose: 100.0 mg/kg/injection, schedule: Q04DX003 (ip), vehicle: saline 100 % of control | dose: 200.0 mg/kg/injection, schedule: Q04DX003 (ip), vehicle: saline 91 % of control | dose: 400.0 mg/kg/injection, schedule: Q04DX003 (ip), vehicle: saline 103 % of control

CC(C)C(=O)OCC1CC2C=CC1C2 (configuration not stated)
inactive: dose: 222.0 mg/kg/injection, schedule: Q01DX Z (ip), vehicle: saline 96 % of control | dose: 333.0 mg/kg/injection, schedule: Q01DX Z (ip), vehicle: saline 104 % of control | dose: 500.0 mg/kg/injection, schedule: Q01DX Z (ip), vehicle: saline 98 % of control

O=C1c2cc(Cl)ccc2-c2c(F)cc(Cl)cc21
inactive: dose: 100.0 mg/kg/injection, schedule: Q01DX001 (ip), vehicle: carboxymethylcellulose (CMC) 103 % of control | dose: 200.0 mg/kg/injection, schedule: Q01DX001 (ip), vehicle: carboxymethylcellulose (CMC) 105 % of control | dose: 400.0 mg/kg/injection, schedule: Q01DX001 (ip), vehicle: carboxymethylcellulose (CMC) 105 % of control

c1ccc2c(c1)Cc1cc3ccccc3nc1-2
inactive: [1] 106 % of control | [4] 98 % of control | [2] 93 % of control | [5] 90 % of control | [3] 98 % of control

CC1=CSCC(=O)N1
inactive: dose: 100.0 mg/kg/injection, schedule: Q01DX009 (ip), vehicle: saline with Tween-80 97 % of control | [4] 101 % of control | [5] 105 % of control

CN(N=O)C(=O)NCCCl
inactive: dose: 0.36 mg/kg/injection, schedule: Q01DX Z (ip), vehicle: carboxymethylcellulose (CMC) 104 % of control | dose: 0.78 mg/kg/injection, schedule: Q01DX Z (ip), vehicle: carboxymethylcellulose (CMC) 95 % of control | dose: 1.56 mg/kg/injection, schedule: Q01DX Z (ip), vehicle: carboxymethylcellulose (CMC) 98 % of control | dose: 3.12 mg/kg/injection, schedule: Q01DX Z (ip), vehicle: carboxymethylcellulose (CMC) 102 % of control | dose: 6.25 mg/kg/injection, schedule: Q01DX Z (ip), vehicle: carboxymethylcellulose (CMC) 102 % of control | dose: 12.5 mg/kg/injection, schedule: Q01DX001 (ip), vehicle: Klucel (hydroxypropylcellulose) (HPC) 103 % of control | dose: 12.5 mg/kg/injection, schedule: Q01DX Z (ip), vehicle: carboxymethylcellulose (CMC) 101 % of control | dose: 25.0 mg/kg/injection, schedule: Q01DX001 (ip), vehicle: Klucel (hydroxypropylcellulose) (HPC) 103 % of control | dose: 25.0 mg/kg/injection, schedule: Q01DX Z (ip), vehicle: carboxymethylcellulose (CMC) 104 % of control | dose: 75.0 mg/kg/injection, schedule: Q01DX Z (ip), vehicle: carboxymethylcellulose (CMC) 119 % of control | dose: 200.0 mg/kg/injection, schedule: Q01DX001 (ip), vehicle: Klucel (hydroxypropylcellulose) (HPC) 118 % of control

C=C(C(=C)C(=O)O)C(=O)O
inactive: [6] 101 % of control | [7] 98 % of control | [8] 101 % of control | [9] 107 % of control | [10] 98 % of control | [11] 102 % of control

O=C(c1ccccc1)c1ccc(C(=O)c2ccccc2)c2c1C(=O)c1ccccc1C2=O
inactive: [1] 92 % of control | [2] 95 % of control | [3] 98 % of control

O=[N+]([O-])c1cc2c(c3cccnc13)COCO2
inactive: [6] 102 % of control | [8] 100 % of control | [10] 94 % of control

CC(=O)c1cc2c(Br)cccc2oc1=O
inactive: [6] 91 % of control | [8] 98 % of control | [10] 95 % of control

NC(=O)NC1OC(CO)C(O)C(O)C1O (configuration not stated)
inactive: [7] 95 % of control | [9] 94 % of control | [11] 86 % of control

From PubChem BioAssay AID248 (DTP/NCI, 2004)
